Test [1] concerns Human Umbilical Vein Endothelial Cell (HUVEC). The experiment in a line: Inhibitory effect on growth of human umbilical vein endothelial cell (HUVEC), MTS. Format: cell-based. As to conditions: 10 ng/ml VEGF, absorbance 490 nm.
The target in another test is VEGFR2 (KDR) (Homo sapiens (Human), UniProt P35968). The experiment in a line: VEGFR2 (KDR) enzyme assay, fluorescence polarization. Type of test: biochemical. The settings on record: 5 μM ATP, poly(Glu, Tyr) substrate. The essentials: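 Buffer: 20 mM HEPES pH 7.4 with 5 mM MgCl2, 2 mM MnCl2 and 50 μM Na3VO4. Compound (0.0001–10 μM) was premixed 10 min with VEGFR2 (200 ng/10 μl), then poly(Glu,Tyr) substrate (10 ng/ml) and 5 μM ATP were added for 1 h at room temperature. EDTA-quenched samples were read by FP after 30 min with antibody and tracer.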
Sequence of VEGFR2 (KDR) (P35968 20-1356): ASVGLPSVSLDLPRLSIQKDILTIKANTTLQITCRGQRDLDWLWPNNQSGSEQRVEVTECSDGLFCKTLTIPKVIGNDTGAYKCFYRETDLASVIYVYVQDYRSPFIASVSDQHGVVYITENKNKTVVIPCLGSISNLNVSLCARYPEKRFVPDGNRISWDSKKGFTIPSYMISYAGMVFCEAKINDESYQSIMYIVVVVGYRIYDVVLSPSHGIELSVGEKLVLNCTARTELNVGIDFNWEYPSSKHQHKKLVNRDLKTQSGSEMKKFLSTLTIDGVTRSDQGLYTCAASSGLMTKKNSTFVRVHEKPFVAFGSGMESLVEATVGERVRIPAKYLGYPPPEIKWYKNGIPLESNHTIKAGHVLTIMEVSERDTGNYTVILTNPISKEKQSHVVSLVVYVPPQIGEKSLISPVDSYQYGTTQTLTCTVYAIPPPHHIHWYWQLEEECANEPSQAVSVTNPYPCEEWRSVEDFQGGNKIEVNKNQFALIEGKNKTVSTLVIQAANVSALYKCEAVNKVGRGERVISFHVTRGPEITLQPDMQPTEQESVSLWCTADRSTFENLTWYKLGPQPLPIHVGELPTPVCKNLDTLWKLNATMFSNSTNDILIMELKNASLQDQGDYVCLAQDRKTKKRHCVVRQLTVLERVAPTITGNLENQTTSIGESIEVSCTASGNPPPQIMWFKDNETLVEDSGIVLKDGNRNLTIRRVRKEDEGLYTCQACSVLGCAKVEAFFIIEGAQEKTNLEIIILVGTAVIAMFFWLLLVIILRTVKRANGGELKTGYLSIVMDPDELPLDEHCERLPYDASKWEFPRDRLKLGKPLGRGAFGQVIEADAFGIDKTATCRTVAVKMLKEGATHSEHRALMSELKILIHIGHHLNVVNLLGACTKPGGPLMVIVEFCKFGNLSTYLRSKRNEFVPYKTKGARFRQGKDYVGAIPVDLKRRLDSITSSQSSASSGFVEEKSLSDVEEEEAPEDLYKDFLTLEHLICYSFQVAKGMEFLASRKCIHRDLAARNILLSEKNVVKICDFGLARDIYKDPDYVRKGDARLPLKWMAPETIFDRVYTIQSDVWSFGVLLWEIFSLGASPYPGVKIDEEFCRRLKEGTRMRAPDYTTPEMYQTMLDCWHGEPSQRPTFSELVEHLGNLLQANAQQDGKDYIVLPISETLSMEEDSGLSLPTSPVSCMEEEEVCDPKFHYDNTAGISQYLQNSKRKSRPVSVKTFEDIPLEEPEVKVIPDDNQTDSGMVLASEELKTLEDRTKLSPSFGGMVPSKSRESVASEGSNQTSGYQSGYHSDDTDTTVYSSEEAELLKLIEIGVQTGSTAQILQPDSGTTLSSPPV
Background: In fluorescence polarisation assays a small probe gives low polarisation when free and higher when bound to something large.

A further test addresses EGFR1 (HER-1) (Homo sapiens (Human), UniProt P00533). As to the kind of experiment: EGFR1 (HER-1) enzyme assay, fluorescence polarization. Format: biochemical. The settings on record: 100 μM ATP, poly(Glu, Tyr) substrate.
For test [2], the system named is skin cancer cell line, A431. As to the kind of experiment: Inhibitory effect on growth of cancer cell line A431, SRB. Type of test: cell-based. The settings on record: overexpressed EGFR1 (HER-1). The essentials: (§1)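 Growth inhibition was measured by sulforhodamine-B staining (absorbance 570 nm) of TCA-fixed cells after 72 h compound exposure at 37 °C, 5% CO2. Test concentrations ran from 10 μM in 10-fold steps to 10^−4, with DMSO below 1%, in 10% FBS DMEM.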

The test system of test [3] is breast cancer cell line, SK-Br3. The experiment in a line: Inhibitory effect on growth of cancer cell line SK-Br3, SRB. Type of test: cell-based. As to conditions: overexpressed EGFR2 (HER-2). In outline:
as §1

The subject of test [4] is colon and rectal cancer cell line, SW-620. As to the kind of experiment: Inhibitory effect on growth of cancer cell line SW-620, SRB. Format: cell-based. The settings on record: not having overexpressed EGFR and EGFR2. In outline:
as §1

As usually defined, the IC50 is the point on the concentration scale where inhibition reaches its midpoint. Higher therefore signals lower potency.

Sequence of EGFR1 (HER-1) (P00533 25-1210): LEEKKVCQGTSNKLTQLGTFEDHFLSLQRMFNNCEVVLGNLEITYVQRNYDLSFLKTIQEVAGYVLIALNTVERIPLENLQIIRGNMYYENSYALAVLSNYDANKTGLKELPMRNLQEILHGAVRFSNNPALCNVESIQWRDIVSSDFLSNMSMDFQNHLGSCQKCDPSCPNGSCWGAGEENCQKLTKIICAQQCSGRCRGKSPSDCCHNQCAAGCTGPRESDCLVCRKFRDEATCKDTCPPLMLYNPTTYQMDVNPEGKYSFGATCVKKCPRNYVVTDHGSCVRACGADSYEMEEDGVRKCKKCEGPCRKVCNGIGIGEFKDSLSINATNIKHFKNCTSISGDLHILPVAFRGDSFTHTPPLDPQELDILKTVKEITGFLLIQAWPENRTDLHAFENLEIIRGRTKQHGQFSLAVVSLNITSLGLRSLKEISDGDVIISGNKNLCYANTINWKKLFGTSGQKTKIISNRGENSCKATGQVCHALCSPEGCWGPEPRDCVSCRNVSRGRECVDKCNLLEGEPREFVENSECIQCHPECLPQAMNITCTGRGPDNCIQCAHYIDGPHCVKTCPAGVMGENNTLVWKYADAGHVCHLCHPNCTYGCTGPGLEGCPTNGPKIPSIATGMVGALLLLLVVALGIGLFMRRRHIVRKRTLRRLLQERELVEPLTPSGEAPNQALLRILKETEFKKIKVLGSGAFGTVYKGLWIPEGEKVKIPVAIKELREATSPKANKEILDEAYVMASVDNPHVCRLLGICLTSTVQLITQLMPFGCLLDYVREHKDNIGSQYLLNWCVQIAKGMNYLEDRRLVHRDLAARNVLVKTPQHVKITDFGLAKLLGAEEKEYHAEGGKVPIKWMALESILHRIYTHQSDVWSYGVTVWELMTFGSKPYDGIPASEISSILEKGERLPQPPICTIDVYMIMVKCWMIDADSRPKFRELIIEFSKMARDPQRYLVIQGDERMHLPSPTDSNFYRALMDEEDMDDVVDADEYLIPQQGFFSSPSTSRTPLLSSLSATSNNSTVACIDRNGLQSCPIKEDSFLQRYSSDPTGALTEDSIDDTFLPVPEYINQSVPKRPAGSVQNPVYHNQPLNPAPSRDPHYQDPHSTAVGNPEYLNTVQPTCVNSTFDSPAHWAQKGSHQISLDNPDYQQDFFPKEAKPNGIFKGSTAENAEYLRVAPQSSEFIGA

`C=CC(=O)Nc1cc2c(Nc3ccc(Br)c(Cl)c3F)ncnc2cc1OCCNC(=S)NCC` [Example 170, N-{4-(4-bromo-3-chloro-2-fluoro-phenylamino)-7-[2-(3-ethyl-thioureido)-ethoxy]-quinazolin-6-yl}-acrylamide]: the IC50 stood at 287 nM in test [1] (Homo sapiens, 96 h); 189 nM on VEGFR2 (KDR); 68 nM at EGFR1 (HER-1); 89 nM in test [2] (Homo sapiens, A-431, 72 h); 43 nM in test [3] (Homo sapiens, SK-BR-3, 72 h); 8250 nM in test [4] (Homo sapiens, 72 h).

As to `C=CC(=O)Nc1cc2c(Nc3ccc(F)cc3F)ncnc2cc1OCCNC(=O)CN(C)C` [Example 68, N-[4-(2,4-difluorophenylamino)-7-{2-[2-(dimethylamino)-acetylamino]-ethoxy}-quinazolin-6-yl]-acrylamide], the IC50 in test [1] (Homo sapiens, 96 h) was 682 nM; against VEGFR2 (KDR) it was 687 nM; against EGFR1 (HER-1), 156 nM; in test [2] (Homo sapiens, A-431, 72 h), 265 nM; in test [3] (Homo sapiens, SK-BR-3, 72 h), 564 nM; in test [4] (Homo sapiens, 72 h) it was 725 nM.

As for `C=CC(=O)Nc1cc2c(Nc3ccc(Br)cc3F)ncnc2cc1OCCNC(=O)CCN(CC)CC` [Example 59, N-{4-(4-bromo-2-fluoro-phenylamino)-7-[2-(3-diethylamino-propionylamino)-ethoxy]-quinazolin-6-yl}-acrylamide], the half-maximal inhibitory concentration (IC50) was determined as 204 nM in test [1] (Homo sapiens, 96 h); 198 nM on VEGFR2 (KDR); 44 nM at EGFR1 (HER-1); 45 nM in test [2] (Homo sapiens, A-431, 72 h); 111 nM in test [3] (Homo sapiens, SK-BR-3, 72 h); 10000 nM in test [4] (Homo sapiens, 72 h).

Turning to `C=CC(=O)Nc1cc2c(Nc3cc(Cl)c(Br)cc3F)ncnc2cc1OCCNC(=O)CC` [Example 134, N-[4-(4-bromo-5-chloro-2-fluoro-phenylamino)-7-(2-propionylamino-ethoxy)-quinazolin-6-yl]-acrylamide], the IC50 amounted to 1060 nM in test [1] (Homo sapiens, 96 h); 172 nM at VEGFR2 (KDR); 13 nM at EGFR1 (HER-1); 18 nM in test [2] (Homo sapiens, A-431, 72 h); 62 nM in test [3] (Homo sapiens, SK-BR-3, 72 h); 9590 nM in test [4] (Homo sapiens, 72 h).

In the case of `C=CC(=O)Nc1cc2c(Nc3ccc(Br)c(Cl)c3F)ncnc2cc1OCCNC(=O)CN(C)C` [Example 143, N-{4-(4-bromo-3-chloro-2-fluoro-phenylamino)-7-[2-(2-dimethylamino-acetylamino)-ethoxy]-quinazolin-6-yl}-acrylamide], the IC50 was found to be 239 nM in test [1] (Homo sapiens, 96 h); 87 nM against VEGFR2 (KDR); 19 nM against EGFR1 (HER-1); 11 nM in test [2] (Homo sapiens, A-431, 72 h); 7 nM in test [3] (Homo sapiens, SK-BR-3, 72 h); 2810 nM in test [4] (Homo sapiens, 72 h).

Turning to `C=CC(=O)Nc1cc2c(Nc3ccc(Br)cc3F)ncnc2cc1OCCNC(=O)C1CCCN1C(C)=O` (stereo not drawn) [Example 105, 1-acetyl-pyrrolidine-2-carboxylic acid {2-[6-acryloylamino-4-(4-bromo-2-fluoro-phenylamino)-quinazolin-7-yloxy]-ethyl}-amide], the concentration for half-maximal inhibition (IC50) in test [1] (Homo sapiens, 96 h) was 654 nM; against VEGFR2 (KDR), 654 nM; on EGFR1 (HER-1), 25 nM; in test [2] (Homo sapiens, A-431, 72 h), 30 nM; in test [3] (Homo sapiens, SK-BR-3, 72 h) it was 100 nM; in test [4] (Homo sapiens, 72 h) it was 6700 nM.

With `C=CC(=O)Nc1cc2c(Nc3ccc(Br)c(Cl)c3F)ncnc2cc1OCCNC(=O)CCN(CC)CC` [Example 144, N-{4-(4-bromo-3-chloro-2-fluoro-phenylamino)-7-[2-(3-diethylamino-propionylamino)-ethoxy]-quinazolin-6-yl}-acrylamide], the IC50 is 154 nM in test [1] (Homo sapiens, 96 h); 54 nM on VEGFR2 (KDR); 7 nM at EGFR1 (HER-1); 6 nM in test [2] (Homo sapiens, A-431, 72 h); 12 nM in test [3] (Homo sapiens, SK-BR-3, 72 h); 721 nM in test [4] (Homo sapiens, 72 h).

As for `C=CC(=O)Nc1cc2c(Nc3ccc(Br)cc3F)ncnc2cc1OCC1CCN(C(=O)C(F)(F)F)CC1` [Example 2, N-{4-(4-bromo-2-fluoro-phenylamino)-7-[1-(2,2,2-trifluoro-acetyl)-piperidin-4-ylmethoxy]-quinazolin-6-yl}-acrylamide], the IC50 stood at 96 nM in test [1] (Homo sapiens, 96 h); 250 nM on VEGFR2 (KDR); 47 nM at EGFR1 (HER-1); 82 nM in test [2] (Homo sapiens, A-431, 72 h); 240 nM in test [3] (Homo sapiens, SK-BR-3, 72 h); 4580 nM in test [4] (Homo sapiens, 72 h).

Turning to `C=CC(=O)Nc1cc2c(Nc3ccc(Br)cc3F)ncnc2cc1OCCNC(=O)C(COC)N(C)C` (stereo not drawn) [Example 161, N-{4-(4-bromo-2-fluoro-phenylamino)-7-[2-(2-dimethylamino-3-methoxy-propionylamino)-ethoxy]-quinazolin-6-yl}-acrylamide], the 50% inhibitory concentration (IC50) in test [1] (Homo sapiens, 96 h) came out at 1230 nM; against VEGFR2 (KDR) it was 1120 nM; against EGFR1 (HER-1), 57 nM; in test [2] (Homo sapiens, A-431, 72 h), 95 nM; in test [3] (Homo sapiens, SK-BR-3, 72 h), 118 nM; in test [4] (Homo sapiens, 72 h), 10000 nM.

With `C=CC(=O)Nc1cc2c(Nc3ccc(Br)c(Cl)c3F)ncnc2cc1OCCNC(=O)CCO` [Example 145, N-{4-(4-bromo-3-chloro-2-fluoro-phenylamino)-7-[2-(3-hydroxy-propionylamino)-ethoxy]-quinazolin-6-yl}-acrylamide], the IC50 was 116 nM in test [1] (Homo sapiens, 96 h); 88 nM on VEGFR2 (KDR); 41 nM against EGFR1 (HER-1); 45 nM in test [2] (Homo sapiens, A-431, 72 h); 58 nM in test [3] (Homo sapiens, SK-BR-3, 72 h); 2630 nM in test [4] (Homo sapiens, 72 h).

With `C=CC(=O)Nc1cc2c(Nc3ccc(Br)cc3F)ncnc2cc1OCCNc1nccs1` [Example 90, N-{4-(4-bromo-2-fluoro-phenylamino)-7-[2-(thiazol-2-ylamino)-ethoxy]-quinazolin-6-yl}-acrylamide], the IC50 in test [1] (Homo sapiens, 96 h) turned out to be 589 nM; against VEGFR2 (KDR), 477 nM; against EGFR1 (HER-1), 295 nM; in test [2] (Homo sapiens, A-431, 72 h) it was 310 nM; in test [3] (Homo sapiens, SK-BR-3, 72 h), 1280 nM; in test [4] (Homo sapiens, 72 h), 10000 nM.

On to `C=CC(=O)Nc1cc2c(Nc3ccc(Br)cc3F)ncnc2cc1OCCNC(=O)N1CCN(C)CC1` [Example 96, 4-methyl-piperazine-1-carboxylic acid {2-[6-acryloylamino-4-(4-bromo-2-fluoro-phenylamino)-quinazolin-7-yloxy]-ethyl}-amide], for which the IC50 in test [1] (Homo sapiens, 96 h) was 352 nM; against VEGFR2 (KDR) it was 358 nM; against EGFR1 (HER-1) it was 13 nM; in test [2] (Homo sapiens, A-431, 72 h), 21 nM; in test [3] (Homo sapiens, SK-BR-3, 72 h), 239 nM; in test [4] (Homo sapiens, 72 h), 10000 nM.

As for `C=CC(=O)Nc1cc2c(Nc3ccc(Br)cc3F)ncnc2cc1OCCNC(=O)c1cccs1` [Example 92, thiophene-2-carboxylic acid {2-[6-acryloylamino-4-(4-bromo-2-fluoro-phenylamino)-quinazolin-7-yloxy]-ethyl}-amide], the IC50 in test [1] (Homo sapiens, 96 h) came out at 258 nM; on VEGFR2 (KDR), 129 nM; against EGFR1 (HER-1) it was 47 nM; in test [2] (Homo sapiens, A-431, 72 h), 57 nM; in test [3] (Homo sapiens, SK-BR-3, 72 h) it was 437 nM; in test [4] (Homo sapiens, 72 h), 729 nM.

Consider `C=CC(=O)Nc1cc2c(Nc3c(F)cc(Br)cc3F)ncnc2cc1OCC1CCN(C(C)=O)CC1` [Example 8, N-[7-(1-acetyl-piperidin-4-ylmethoxy)-4-(4-bromo-2,6-difluoro-phenylamino)-quinazolin-6-yl]-acrylamide], for which the IC50 turned out to be 98 nM in test [1] (Homo sapiens, 96 h); 148 nM on VEGFR2 (KDR); 13 nM against EGFR1 (HER-1); 20 nM in test [2] (Homo sapiens, A-431, 72 h); 149 nM in test [3] (Homo sapiens, SK-BR-3, 72 h); 2530 nM in test [4] (Homo sapiens, 72 h).

Regarding `C=CC(=O)Nc1cc2c(Nc3ccc(Br)cc3F)ncnc2cc1OCCNC(=O)CN(CC)CC` [Example 167, N-{4-(4-bromo-2-fluoro-phenylamino)-7-[2-(2-diethylamino-acetylamino)-ethoxy]-quinazolin-6-yl}-acrylamide], the IC50 was 108 nM in test [1] (Homo sapiens, 96 h); 462 nM on VEGFR2 (KDR); 26 nM at EGFR1 (HER-1); 42 nM in test [2] (Homo sapiens, A-431, 72 h); 103 nM in test [3] (Homo sapiens, SK-BR-3, 72 h); 10000 nM in test [4] (Homo sapiens, 72 h).

For the compound `C=CC(=O)Nc1cc2c(Nc3ccc(Br)cc3F)ncnc2cc1OCC(C)NC(=O)CN(C)C` (stereo not drawn) [Example 153], the IC50 in test [1] (96 hours) came out at 521 nM; against VEGFR2 (KDR), 433 nM; against EGFR1 (HER-1), 172 nM; in test [2] (72 hours), 160 nM; in test [3] (72 hours), 207 nM; in test [4] (72 hours), 9570 nM.

`C=CC(=O)Nc1cc2c(Nc3cc(Cl)c(Cl)cc3F)ncnc2cc1OCCNC(C)=O` [Example 121, N-[7-(2-acetylamino-ethoxy)-4-(4,5-dichloro-2-fluoro-phenylamino)-quinazolin-6-yl]-acrylamide]: the IC50 amounted to 383 nM in test [1] (Homo sapiens, 96 h); 153 nM against VEGFR2 (KDR); 5 nM on EGFR1 (HER-1); 7 nM in test [2] (Homo sapiens, A-431, 72 h); 22 nM in test [3] (Homo sapiens, SK-BR-3, 72 h); 10000 nM in test [4] (Homo sapiens, 72 h).

Consider `C=CC(=O)Nc1cc2c(Nc3ccc(Br)cc3F)ncnc2cc1OCCNC(=O)CS(C)(=O)=O` [Example 47, N-{4-(4-bromo-2-fluoro-phenylamino)-7-[2-(2-methanesulfonyl-acetylamino)-ethoxy]-quinazolin-6-yl}-acrylamide], for which the IC50 in test [1] (Homo sapiens, 96 h) was 269 nM; on VEGFR2 (KDR), 209 nM; on EGFR1 (HER-1), 24 nM; in test [2] (Homo sapiens, A-431, 72 h) it was 27 nM; in test [3] (Homo sapiens, SK-BR-3, 72 h), 67 nM; in test [4] (Homo sapiens, 72 h), 9570 nM.
